Measured values as given in publication PMC9099118 (Clinical and Translational Science, 2022).

Experiment: Phase I safety: adverse events, Part A
Type: in vivo, human
Settings: for Related AE / Total number of participants with at least one AE / Upper respiratory tract infection / Cough / Headache: n (%)
[1] = Part B MAD, 15 mg b.i.d. (n = 6)

SMILES: CN(CCC#N)C1CCN(C(=O)Cn2cc(NC(=O)c3cnn4cccnc34)c(-c3cc(Cl)ccc3OC(F)F)n2)CC1 [GDC‐0214]
- AE leading to withdrawal from treatment (Part A SAD, 0.15 mg (n = 3)): 0
- Serious AE (Part A SAD, 0.15 mg (n = 3)): 0
- Total number of AEs (Part A SAD, 0.15 mg (n = 3)): 1
- Total number of deaths (Part A SAD, 0.15 mg (n = 3)): 0
- Total number of participants withdrawn from study due to an AE (Part A SAD, 0.15 mg (n = 3)): 0
- Related AE (Part A SAD, 0.15 mg (n = 3)): 0
- Total number of participants with at least one AE (Part A SAD, 0.15 mg (n = 3)): 1 (33.3%)
- Upper respiratory tract infection (Part A SAD, 0.15 mg (n = 3)): 0
- AE leading to withdrawal from treatment (Part A SAD, 0.5 mg (n = 3)): 0
- Serious AE (Part A SAD, 0.5 mg (n = 3)): 0
- Total number of AEs (Part A SAD, 0.5 mg (n = 3)): 3
- Total number of deaths (Part A SAD, 0.5 mg (n = 3)): 0
- Total number of participants withdrawn from study due to an AE (Part A SAD, 0.5 mg (n = 3)): 0
- Related AE (Part A SAD, 0.5 mg (n = 3)): 0
- Total number of participants with at least one AE (Part A SAD, 0.5 mg (n = 3)): 2 (66.7%)
- Upper respiratory tract infection (Part A SAD, 0.5 mg (n = 3)): 0
- AE leading to withdrawal from treatment (Part A SAD, 1.5 mg (n = 6)): 0
- Serious AE (Part A SAD, 1.5 mg (n = 6)): 0
- Total number of AEs (Part A SAD, 1.5 mg (n = 6)): 5
- Total number of deaths (Part A SAD, 1.5 mg (n = 6)): 0
- Total number of participants withdrawn from study due to an AE (Part A SAD, 1.5 mg (n = 6)): 0
- Related AE (Part A SAD, 1.5 mg (n = 6)): 1 (16.7%)
- Total number of participants with at least one AE (Part A SAD, 1.5 mg (n = 6)): 3 (50.0%)
- AE leading to withdrawal from treatment (Part A SAD, 5 mg (n = 6)): 0
- Serious AE (Part A SAD, 5 mg (n = 6)): 0
- Total number of AEs (Part A SAD, 5 mg (n = 6)): 2
- Total number of deaths (Part A SAD, 5 mg (n = 6)): 0
- Total number of participants withdrawn from study due to an AE (Part A SAD, 5 mg (n = 6)): 0
- Related AE (Part A SAD, 5 mg (n = 6)): 0
- Total number of participants with at least one AE (Part A SAD, 5 mg (n = 6)): 2 (33.3%)
- Upper respiratory tract infection (Part A SAD, 5 mg (n = 6)): 0
- AE leading to withdrawal from treatment (Part A SAD, 15 mg (n = 6)): 0
- Serious AE (Part A SAD, 15 mg (n = 6)): 0
- Total number of AEs (Part A SAD, 15 mg (n = 6)): 4
- Total number of deaths (Part A SAD, 15 mg (n = 6)): 0
- Total number of participants withdrawn from study due to an AE (Part A SAD, 15 mg (n = 6)): 0
- Related AE (Part A SAD, 15 mg (n = 6)): 1 (16.7%)
- Total number of participants with at least one AE (Part A SAD, 15 mg (n = 6)): 4 (66.7%)
- Upper respiratory tract infection (Part A SAD, 15 mg (n = 6)): 0
- Total number of participants with at least one AE (Part B MAD, 1 mg q.d. 14 days (n = 6)): 6 (100%)
- AE leading to withdrawal from treatment (Part B MAD, 1 mg q.d. (n = 6)): 0
- Related serious AE (Part B MAD, 1 mg q.d. (n = 6)): 0
- Serious AE (Part B MAD, 1 mg q.d. (n = 6)): 0
- Total number of AEs (Part B MAD, 1 mg q.d. (n = 6)): 6
- Total number of deaths (Part B MAD, 1 mg q.d. (n = 6)): 0
- Total number of participants withdrawn from study due to an AE (Part B MAD, 1 mg q.d. (n = 6)): 0
- Cough (Part B MAD, 1 mg q.d. (n = 6)): 0
- Headache (Part B MAD, 1 mg q.d. (n = 6)): 1 (16.7%)
- Related AE (Part B MAD, 1 mg q.d. (n = 6)): 0
- Upper respiratory tract infection (Part B MAD, 1 mg q.d. (n = 6)): 2 (33.3%)
- Total number of participants with at least one AE (Part B MAD, 3 mg q.d. 14 days (n = 6)): 4 (66.7%)
- AE leading to withdrawal from treatment (Part B MAD, 3 mg q.d. (n = 6)): 0
- Related serious AE (Part B MAD, 3 mg q.d. (n = 6)): 0
- Serious AE (Part B MAD, 3 mg q.d. (n = 6)): 0
- Total number of AEs (Part B MAD, 3 mg q.d. (n = 6)): 11
- Total number of deaths (Part B MAD, 3 mg q.d. (n = 6)): 0
- Total number of participants withdrawn from study due to an AE (Part B MAD, 3 mg q.d. (n = 6)): 0
- Cough (Part B MAD, 3 mg q.d. (n = 6)): 1 (16.7%)
- Headache (Part B MAD, 3 mg q.d. (n = 6)): 2 (33.3%)
- Related AE (Part B MAD, 3 mg q.d. (n = 6)): 1 (16.7%)
- Upper respiratory tract infection (Part B MAD, 3 mg q.d. (n = 6)): 3 (50.0%)
- Total number of participants with at least one AE (Part B MAD, 10 mg q.d. 14 days (n = 6)): 6 (100%)
- AE leading to withdrawal from treatment (Part B MAD, 10 mg q.d. (n = 6)): 0
- Related serious AE (Part B MAD, 10 mg q.d. (n = 6)): 0
- Serious AE (Part B MAD, 10 mg q.d. (n = 6)): 0
- Total number of AEs (Part B MAD, 10 mg q.d. (n = 6)): 13
- Total number of deaths (Part B MAD, 10 mg q.d. (n = 6)): 0
- Total number of participants withdrawn from study due to an AE (Part B MAD, 10 mg q.d. (n = 6)): 0
- Cough (Part B MAD, 10 mg q.d. (n = 6)): 0
- Headache (Part B MAD, 10 mg q.d. (n = 6)): 0
- Related AE (Part B MAD, 10 mg q.d. (n = 6)): 0
- Upper respiratory tract infection (Part B MAD, 10 mg q.d. (n = 6)): 2 (33.3%)
- Total number of participants with at least one AE (Part B MAD, 15 mg b.i.d. 14 days (n = 6)): 4 (66.7%)
- AE leading to withdrawal from treatment [1]: 0
- Related serious AE [1]: 0
- Serious AE [1]: 0
- Total number of AEs [1]: 8
- Total number of deaths [1]: 0
- Total number of participants withdrawn from study due to an AE [1]: 0
- Cough [1]: 0
- Headache [1]: 2 (33.3%)
- Related AE [1]: 0
- Upper respiratory tract infection [1]: 0
- severity of adverse events (after single and multiple doses, all adverse events): mild or moderate
- safety and tolerability (up to a single dose of 15 mg or multiple doses up to 15 mg b.i.d. for 14 days): safe and well tolerated
